These molecules were tested against Thrombin (≥1000 NIH U mg^−1 protein) prepared from human plasma (Homo sapiens, UniProt P00734) (assay: chromogenic thrombin activation assay, […] nm).
Format: biochemical

In order of falling EC50:
1. COc1cc(/C=C/C(=O)Nc2nc3ccccc3s2)cc(OC)c1OC [Q8, (E)-N-(Benzo[d]thiazol-2-yl)-3-(3,4,5-trimethoxyphenyl)acrylamide]  232 µM
2. CC(=O)Oc1ccc(/C=C/C(=O)Nc2nc3ccccc3s2)cc1 [Q2, (E)-4-(3-(Benzo[d]thiazol-2-ylamino)-3-oxoprop-1-en-1-yl)phenyl acetate]  136 µM
3. O=S(=O)(O)c1cc(O)ccc1O [etamsylate, reference compound]  127 µM

Source: publication PMC9078235 (RSC Advances, 2018)
